Patent publication US11912790B2, “Peptide compounds and therapeutic uses of same” (Immunity Pharma Ltd., priority 2018, dated 2024)
“Also recorded” adds a separate entry of the source. No end group written: not given here.

Legend:
BALB/c mice [1] = experiment: Dexamethasone-induced spleen and thymus weight and cell count loss in mice, Example 1 (FIG. 1); type: in vivo, mouse; settings: 100 μg Dexamethasone IP; for reduction of cell count loss (spleen and thymus) / reduction of the amount of dexamethasone-induced spleen and/or thymus weight loss: BALB/c mice, peptide IV 250 or 400 μg/mouse immediately and 24 h after, sacrifice at 48 h, no difference between the 2 doses
Description: The peptides described herein are capable of reducing the amount of dexamethasone-induced spleen and/or thymus weight loss in a mouse—e.g. following injection (IP) with 100 μg of Dexamethasone.
(§1) Dexamethasone is a corticosteroid medication that induces apoptosis of immune cells and lymphomyeloid tissues. BALB/c mice were used to examine the ability of candidate peptides to rescue lymphocyte cells from apoptosis. Mice were injected IP with 100 μg of Dexamethasone. Dexamethasone-treated mice received immediately following and 24-hours after dexamethasone treatment IV injection of candidate peptides (250 or 400 μg peptide/mouse). Mice were sacrificed 48 hours after the first treatment. The spleen and the thymus were weighted and full cell count of both organs was performed.

BALB/c mice [2] = experiment: Dexamethasone-induced spleen and thymus weight and cell count loss in mice, Example 2 (FIG. 2); type: in vivo; settings: 100 μg Dexamethasone IP, peptide IV 200 μg/mouse immediately and 24 h after, sacrifice at 48 h
Description: as §1, with “BALB/c” for “Dexamethasone is a corticosteroid medication that induces apoptosis of immune cells and lymphomyeloid tissues. BALB/c”, “(200” for “(250 or 400”

Molecule | spleen and thymus weight loss and reduction in spleen cell count induced by dexamethasone (BALB/c mice [1]; 48 h, compared to normal mice) | thymus cell count reduction induced by dexamethasone (BALB/c mice [1]; 48 h, compared to normal mice) [%] | reduction of cell count loss (spleen and thymus) (BALB/c mice [1]) | reduction of the amount of dexamethasone-induced spleen and/or thymus weight loss (BALB/c mice [1]) | reduction of the amount of dexamethasone-induced spleen and/or thymus weight loss (BALB/c mice [2])
C[C@@H]1C[C@H]2[C@@H]3CCC4=CC(=O)C=C[C@]4(C)[C@@]3(F)[C@@H](O)C[C@]2(C)[C@@]1(O)C(=O)CO [Dexamethasone, reference compound] | about 50% | ~80 |  |  | 
LPPLAYP [SEQ ID NO: 4] |  |  | significant effect | significant effect; also recorded: significantly reduced | 
PPLAYP [SEQ ID NO: 18] |  |  |  |  | significant improvement
PPLPY (not fully specified (C-terminus)) [SEQ ID NO: 3] |  |  | significant effect | significant effect; also recorded: significantly reduced | 
